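Assay format: 96-well plates, 48-hour exposure. At the TGI there is no net growth.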
Tests used:
Experiment in all cases: NCI tumour cell line growth inhibition, 48 h
786-0 renal = tested on: 786-0 renal
A549 NSCLC = tested on: A549 NSCLC
ACHN renal = tested on: ACHN renal
BT-549 breast = tested on: BT-549 breast
CAKI-1 renal = tested on: CAKI-1 renal
CCRF-CEM leukemia = tested on: CCRF-CEM leukemia
COLO 205 colon = tested on: COLO 205 colon
DU-145 prostate = tested on: DU-145 prostate
EKVX NSCLC = tested on: EKVX NSCLC
HCT-116 colon = tested on: HCT-116 colon
HCT-15 colon = tested on: HCT-15 colon
HL-60(TB) leukemia = tested on: HL-60(TB) leukemia
HOP-62 NSCLC = tested on: HOP-62 NSCLC
HOP-92 NSCLC = tested on: HOP-92 NSCLC
HS 578T breast = tested on: HS 578T breast
HT29 colon = tested on: HT29 colon
IGROV1 ovarian = tested on: IGROV1 ovarian
K-562 leukemia = tested on: K-562 leukemia
KM12 colon = tested on: KM12 colon
LOX IMVI melanoma = tested on: LOX IMVI melanoma
M14 melanoma = tested on: M14 melanoma
MALME-3M melanoma = tested on: MALME-3M melanoma
MDA-MB-231 breast = tested on: MDA-MB-231 breast
MDA-MB-435 = tested on: MDA-MB-435
MDA-N = tested on: MDA-N
NCI-H226 lung = tested on: NCI-H226 lung
NCI-H23 lung = tested on: NCI-H23 lung
NCI-H460 lung = tested on: NCI-H460 lung
NCI-H522 lung = tested on: NCI-H522 lung
NCI/ADR-RES ovarian = tested on: NCI/ADR-RES ovarian
OVCAR-3 ovarian = tested on: OVCAR-3 ovarian
OVCAR-4 ovarian = tested on: OVCAR-4 ovarian
OVCAR-5 ovarian = tested on: OVCAR-5 ovarian
OVCAR-8 ovarian = tested on: OVCAR-8 ovarian
PC-3 prostate = tested on: PC-3 prostate
RXF 393 renal = tested on: RXF 393 renal
SF-268 CNS = tested on: SF-268 CNS
SF-295 CNS = tested on: SF-295 CNS
SF-539 CNS = tested on: SF-539 CNS
SK-MEL-2 melanoma = tested on: SK-MEL-2 melanoma
SK-MEL-28 melanoma = tested on: SK-MEL-28 melanoma
SK-MEL-5 melanoma = tested on: SK-MEL-5 melanoma
SK-OV-3 ovarian = tested on: SK-OV-3 ovarian
SN12C renal = tested on: SN12C renal
SNB-19 CNS = tested on: SNB-19 CNS
SNB-75 CNS = tested on: SNB-75 CNS
SW-620 colon = tested on: SW-620 colon
T-47D breast = tested on: T-47D breast
TK-10 renal = tested on: TK-10 renal
U251 CNS = tested on: U251 CNS
UACC-257 melanoma = tested on: UACC-257 melanoma
UACC-62 melanoma = tested on: UACC-62 melanoma
UO-31 renal = tested on: UO-31 renal
A498 renal = tested on: A498 renal
HCC-2998 colon = tested on: HCC-2998 colon
MCF7 breast = tested on: MCF7 breast
MOLT-4 leukemia = tested on: MOLT-4 leukemia
RPMI-8226 leukemia = tested on: RPMI-8226 leukemia
SR leukemia = tested on: SR leukemia

Measured: TGI

NC1CC(=O)c2cc(Cl)sc21 (centres undefined)
not listed: A498 renal | HCC-2998 colon | MCF7 breast | MOLT-4 leukemia | RPMI-8226 leukemia | SR leukemia
> 100 µM: all other assays above

O=C(O)C(=C\c1ccc2c(c1)OCO2)/C(=C/c1ccc2c(c1)OCO2)C(=O)O
not listed: 786-0 renal | A549 NSCLC | ACHN renal | EKVX NSCLC | MDA-MB-231 breast | NCI-H522 lung | SF-268 CNS | SF-539 CNS
> 100 µM: all other assays above

— PubChem BioAssay (NCI)
